{
  "source": "patent US20120202751A1",
  "about": "“METHODS OF MONITORING ENDOPLASMIC RETICULUM (ER) STRESS RESPONSE” (The Board of trustees of the Leland Stanford Junior …, priority 2009, published 2012)",
  "key": {"[1]": {"tested_on": "ATF4-Luc", "assay": "ATF4-luc UPR reporter luciferase activity in HT1080 cells", "type": "cell-based, human", "details": "for UPR reporter activity, ATF4-luc construct: luciferase activity measured after 24 hours", "method": "(§1) FIG. 1 (A) Upper Panel: is a schematic representation of the XBP1-luc reporter construct. Lower panel: is a bar graph of in vitro luciferase activity from different reporter constructs in response to different stresses. HT 1080 cells expressing either a XBP1-luc construct, or an ATF4 or CMV-driven luciferase gene were cultured in 10 μg/ml tunicamycin, glucose depletion, or severe hypoxia (<0.02% O2) for 24 hours to induce ER stress. (B) is a graphical representation of the incidence of breast carcinomas in Tag mice and Tag-Luc double transgenic mice. […] Tumor areas are outlined. Lower panel: are overlays of in vivo bioluminescence on the pictures in the middle panel. (D) is a series of fluorescent micrographs of tissue sections from tumors from Tag-Luc and Tag mice. Frozen sections were stained with antiluciferase and anti-XBP1 (top left two panels), anti-luciferase and anti-BiP (bottom left two panels), anti-luciferase and anti-eIF2α (top right two panels), or the control secondary antibodies (bottom right two panels).\n(§2) (B) is a bar graph of in vitro XBP1-luc activity in preparations of spontaneous primary tumors from Tag and Tag-Luc mice cultured under normoxic or hypoxic conditions for 48 h. (C) Left panel: are photographs with overlays of in vivo bioluminescence in Tag-Luc mice treated with vehicle or 50 mg/kg DCA (dichloroacetic acid) b.i.d. for 2 days. Bioluminescence was measured after 32 hours. Right panel: is a bar graph of in vivo bioluminescence as shown in the left panel of FIG. 5C and is the average of two experiments. (D) is a bar graph of in vitro luciferase activity in HT1080 cells containing CMV, XBP1, or ATF4-luciferase reporters after treatment with 2-DG, DCA, or glucose deprivation. Luciferase activity was measured after 24 hours.\nThis reporter construct was tested in vitro. The human fibrosarcoma cell line HT1080 was obtained from ATCC (Manassas, Va.). Cells were maintained at 37° C. with 5% CO2 in DMEM supplemented with 10% FBS and 1% penicillin-streptomycin antibiotics. HT1080 cells (FIG. 1A, lower panel) were stably transfected with the XBP1-Luc construct. […]"}, "[2]": {"tested_on": "XBP1-luc activity", "assay": "In vivo bioluminescence of primary tumors in Tag-Luc mice", "method": "Mice were injected with fluorescently-labeled 2-DG or RGD peptide or dye alone and imaged 24 hours later for in vivo bioluminescence and 2-DG, RGD peptide, and dye uptake. Dark arrows indicate tumors with high in vivo bioluminescence and light arrows indicate tumors with low in vivo bioluminescence. (B) is a plot of 2-DG signal against in vivo bioluminescence for the mice imaged in FIG. 4(A). (C) is a bar graph of in vivo bioluminescence in autochthonous tumors after 24 hours of glucose deprivation. (D) Left panel: are photographs with overlays of in vivo bioluminescence of Tag-Luc mice at 0 and 12 hours after treatment with 2 mg of 2-DG or vehicle i.p. Arrows indicate palpable tumors. […]\n(B) is a bar graph of in vitro XBP1-luc activity in preparations of spontaneous primary tumors from Tag and Tag-Luc mice cultured under normoxic or hypoxic conditions for 48 h. […] Bioluminescence was measured after 32 hours. […] Luciferase activity was measured after 24 hours.\nIn vivo bioluminescence, which corresponds to XBP1-Luc activity, was detected noninvasively using the IVIS imaging system (Caliper LifeSciences, Hopkinton, Mass.). […] Image analysis and quantification was performed using Living Image software (Caliper LifeSciences, Hopkinton, Mass.). All images were analyzed with a binning of 10. […]"}, "[3]": {"tested_on": "XBP1-Luc construct", "assay": "XBP1-luc reporter luciferase activity in HT1080 cells", "type": "cell-based, human", "details": "for UPR reporter activity, XBP1-luc construct: HT1080 cells, luciferase activity measured after 24 hours", "method": "as §1\nas §2, with “(D) is a bar graph of in vitro luciferase activity in HT1080 cells containing CMV, XBP1, or ATF4-luciferase reporters after treatment with 2-DG, DCA, or glucose deprivation.” left out\nThe first 208 amino acids of the unspliced human XBP1-1 was amplified by PCR and subcloned into pEGFP-N1 (Clontech, Mountain View, Calif.). This plasmid was subsequently digested with Bam HI and Not Ito remove the EGFP and a PCR-generated firefly luciferase gene was cloned downstream of the XBP1-1 gene such that the luciferase gene was in frame only in the “spliced” reading frame. […]"}, "[4]": {"tested_on": "XBP1-luc activity", "assay": "In vitro luciferase activity of cultured Hi and Lo primary tumors from Tag-Luc mice", "type": "cell-based", "details": "primary Tag-Luc tumors after 7-10 days of in vitro culture", "method": "FIG. 3 (A) is a bar graph of in vitro luciferase activity of primary tumors from Tag-Luc mice with “Hi” or “Lo” in vivo bioluminesence or tumors from Tag mice after 7-10 days of in vitro culture. Luciferase activity was also measured following tunicamycin treatment. (B) Left panels: are photographs of Tag-Luc mice bearing tumors with synchronous Hi (dark outline in the upper panel) and Lo (light outlines) in vivo bioluminescence (overlays, lower panel). Right panels: are photographs, including bioluminescent overlay, of transplanted Hi (dark circle/arrow; upper left flank) and Lo (light circles/arrows) primary tumors from Tag-Luc mice 14 days after subcutaneously transplantation into four separate quadrants on the dorsal surface of syngeneic FVB mice. (C) is a bar graph of in vivo bioluminesence of primary and transplanted Hi and Lo tumors. Results are the average of four independent experiments.\nTumors isolated ex vivo from Tag-Luc transgenic mice had 14.5-fold greater luciferase activity than tumors isolated from control Tag transgenic mice (FIG. 2A, middle panel; p=0.0001; n=16 for Tag mice, n=33 for Tag-Luc mice). […] Luciferase activity was detected on a Monolight 2010 (Analytic Luminescence Laboratory, San Diego, Calif.)."}},
  "data": [
    {"compound": "O=CC[C@@H](O)[C@H](O)[C@H](O)CO", "note": "[Compound 2-DG, 2-deoxy-d-glucose]", "values": [
      {"measurement": "UPR reporter activity, ATF4-luc construct", "setting": "[1]", "value": "did induce UPR reporter activity"},
      {"measurement": "increase in tumor bioluminescence compared to control mice", "setting": "[2]; Tag-Luc mice, 2 mg 2-DG i.p., 12 hours, p=0.01", "value": 1.78, "unit": "fold"},
      {"measurement": "UPR reporter activity, XBP1-luc construct", "setting": "[3]", "value": "did induce UPR reporter activity"}
    ]},
    {"compound": "O=C(O)C(Cl)Cl", "note": "[DCA, dichloroacetic acid]", "values": [
      {"measurement": "UPR reporter activity, ATF4-luc construct", "setting": "[1]", "value": "did not induce UPR reporter activity"},
      {"measurement": "increase in bioluminescent signal of primary Tag-Luc tumors", "setting": "[2]; repeated injections, 50 mg/kg b.i.d. for 2 days, measured after 32 hours", "value": 2.0, "unit": "fold"},
      {"measurement": "UPR reporter activity, XBP1-luc construct", "setting": "[3]", "value": "did not induce UPR reporter activity"}
    ]},
    {"compound": "tunicamycin", "values": [
      {"measurement": "ATF4-Luc reporter induction", "setting": "[1]; 10 μg/ml tunicamycin, 24 hours", "value": "also induced"},
      {"measurement": "XBP1-luc activity in Hi and Lo tumors", "setting": "[4]", "value": "increased"},
      {"measurement": "luciferase activity, XBP1-Luc cells", "setting": "[3]; HT1080 cells stably transfected with XBP1-Luc, 10 μg/ml tunicamycin, 24 hours, compared to CMV-Luc control cells", "value": "strongly induced luciferase activity"}
    ]}
  ]
}
